Source: ChEMBL document CHEMBL1949559, “Discovery of a new class of potent prolylcarboxypeptidase inhibitors derived from alanine” (Bioorg Med Chem Lett, 2012)

Columns and labels:
[1] = molecular target: T1, Lysosomal Pro-X carboxypeptidase (Mus musculus, UniProt Q7TMR0); experiment: Inhibition of PrCP-mediated angiotensin3 cleavage in mouse plasma using exogenous angiotensin III as substrate for 8 mins by LC/MS analysis
T1 sequence (Q7TMR0 whole entry): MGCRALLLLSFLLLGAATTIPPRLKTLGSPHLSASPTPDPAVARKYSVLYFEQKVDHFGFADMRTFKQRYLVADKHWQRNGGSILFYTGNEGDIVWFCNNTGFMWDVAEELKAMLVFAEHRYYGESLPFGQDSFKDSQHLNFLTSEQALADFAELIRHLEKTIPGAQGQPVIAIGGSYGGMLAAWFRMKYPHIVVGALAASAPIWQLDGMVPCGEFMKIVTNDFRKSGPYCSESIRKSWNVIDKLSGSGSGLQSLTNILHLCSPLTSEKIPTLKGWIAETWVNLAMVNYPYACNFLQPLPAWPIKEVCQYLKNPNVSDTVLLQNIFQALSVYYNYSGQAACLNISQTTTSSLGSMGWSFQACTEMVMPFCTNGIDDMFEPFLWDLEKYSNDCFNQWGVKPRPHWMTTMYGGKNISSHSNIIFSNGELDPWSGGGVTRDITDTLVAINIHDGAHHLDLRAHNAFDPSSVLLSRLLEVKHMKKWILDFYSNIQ

[2] = molecular target: T2, Lysosomal Pro-X carboxypeptidase (Homo sapiens, UniProt P42785); experiment: Inhibition of human recombinant PrCP using Mca-Ala-Pro-Lys(Dnp)-OH as substrate for 30 mins by continuous fluorimetric assay
T2 sequence (P42785 whole entry): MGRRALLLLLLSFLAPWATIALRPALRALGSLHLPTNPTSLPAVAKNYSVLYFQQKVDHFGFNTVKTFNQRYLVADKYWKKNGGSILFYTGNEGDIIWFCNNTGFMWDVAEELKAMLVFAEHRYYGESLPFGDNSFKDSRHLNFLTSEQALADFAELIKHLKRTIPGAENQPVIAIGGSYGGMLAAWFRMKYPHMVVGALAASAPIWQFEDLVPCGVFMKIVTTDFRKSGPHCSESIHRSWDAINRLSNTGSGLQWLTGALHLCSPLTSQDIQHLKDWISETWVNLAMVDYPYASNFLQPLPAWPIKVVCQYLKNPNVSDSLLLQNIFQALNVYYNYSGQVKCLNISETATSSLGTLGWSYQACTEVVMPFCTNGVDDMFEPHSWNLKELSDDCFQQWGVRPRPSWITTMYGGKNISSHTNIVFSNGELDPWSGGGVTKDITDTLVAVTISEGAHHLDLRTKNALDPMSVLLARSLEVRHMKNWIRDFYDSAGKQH

[3] = molecular target: T3, Lysosomal Pro-X carboxypeptidase (Homo sapiens) (UniProt P42785); experiment: Inhibition of human recombinant PrCP using Mca-Ala-Pro-Lys(Dnp)-OH as substrate at 5 uM for 30 mins by continuous fluorimetric assay
T3 sequence (whole entry): T2 sequence (P42785 whole entry)

[4] = molecular target: T3, Lysosomal Pro-X carboxypeptidase (Homo sapiens); experiment: Inhibition of human recombinant PrCP using Mca-Ala-Pro-Lys(Dnp)-OH as substrate at 0.5 uM for 30 mins by continuous fluorimetric assay
[5] = molecular target: T1, Lysosomal Pro-X carboxypeptidase; experiment: Inhibition of mouse recombinant PrCP using Mca-Ala-Pro-Lys(Dnp)-OH as substrate for 30 mins by continuous fluorimetric assay
[6] = Oral bioavailability in mouse at 2 mg/kg; assay type: ADME, organism-based; settings: in vivo
[7] = Clearance in mouse at 1 mg/kg, iv and 2 mg/kg, po; assay type: ADME, organism-based; settings: in vivo
[8] = Volume of distribution at steady state in mouse at 1 mg/kg, iv and 2 mg/kg, po; assay type: ADME, organism-based; settings: in vivo, read-out: Vdss
[9] = Half life in mouse at 1 mg/kg, iv and 2 mg/kg, po; assay type: ADME, organism-based; settings: in vivo
Mus musculus = experiment: Dose normalized AUC in mouse at 2 mg/kg, po; assay type: ADME, organism-based; parameters: dose 2 mg/kg, route oral; settings: in vivo

An IC50 [1] of 5000 nM was found for `C[C@H](NC(=O)CCN1CCN(c2cccc(F)c2)CC1)c1nc2cc(Cl)c(Cl)cc2[nH]1` in this work.
For `Clc1cc2nc(-c3cccnc3OCCc3ccc(-c4ccccc4)cc3)[nH]c2cc1Cl`, the IC50 [2] was > 10000 nM.
An inhibition [3] of 13% and an inhibition [4] of 3% were found for `O=C(CCCOc1ccccc1)N[C@@H](Cc1ccccc1)c1ncc(-c2ccc(F)cc2)[nH]1` in this work.
An IC50 [1] of 20000 nM was found for `C[C@H](NC(=O)CCN1CCN(c2ccc(F)cc2)CC1)c1nc2cc(Cl)c(Cl)cc2[nH]1` in this work.
An inhibition [3] of 90% and an inhibition [4] of 65% were found for `COc1cccc(-c2cnc([C@H](C)NC(=O)CCCOc3ccccc3)[nH]2)c1` in this work.
With `O=C(CCc1ccc(-c2ccccc2)cc1)NCc1nc2cc(Cl)c(Cl)cc2[nH]1` the IC50 [2] was > 10000 nM.
An IC50 [1] of 92 nM was found for `C[C@H](NC(=O)[C@@H](NC(=O)C(C)(C)N)[C@@H](C)c1ccc(OCC(F)(F)F)cc1)c1nc2cc(Cl)c(Cl)cc2[nH]1` in this work.
An inhibition [3] of 31% and an inhibition [4] of 7% were found for `COc1cccc(-c2cnc(C(NC(=O)CCCOc3ccccc3)C3CCCCC3)[nH]2)c1` (configuration not stated) in this work.
In the case of `CC(C)(C)OC(=O)N[C@@H](Cc1ccc(-c2ccccc2)cc1)C(=O)N1CCCC[C@H]1c1nc2cc(Cl)c(Cl)cc2[nH]1`, the IC50 [2] is reported as > 10000 nM.
An IC50 [5] of 0.039 nM, a bioavailability [6] of 17% and a clearance [7] of 58 mL/min/kg were found for `C[C@H](NC(=O)[C@@H](NC(=O)C(C)(C)N)[C@@H](C)c1ccc(-c2ccccc2)cc1)c1nc2cc(Cl)c(Cl)cc2[nH]1` in this work. It also gave a Vd [8] of 14 L/kg, a half-life [9] of 4 h and an AUC/dose (Mus musculus) of 0.52 µM·kg·h/mg. For the same compound, the IC50 [1] was 22 nM.
An IC50 [2] of 181 nM was found for `CC(C)(NC(=O)CCN1CCC(c2ccccc2)CC1)c1nc2cc(Cl)c(Cl)cc2[nH]1` in this work.
An IC50 [1] of 78 nM was found for `C[C@H](NC(=O)[C@@H](NC(=O)C(C)(C)O)[C@@H](C)c1ccc(-c2cn[nH]c2)cc1)c1nc2cc(Cl)c(Cl)cc2[nH]1` in this work.
An IC50 [5] of 128 nM and an IC50 [1] of 1600 nM were found for `C[C@H](NC(=O)[C@H](Cc1cccc(C#N)c1)NC(=O)C(C)(C)N)c1nc2cc(Cl)c(Cl)cc2[nH]1` in this work.
An IC50 [1] of 585 nM was found for `C[C@H](NC(=O)[C@H](Cc1ccc(-c2ccccc2)cc1)NCC(C)(C)N)c1nc2cc(Cl)c(Cl)cc2[nH]1` in this work.
With `Clc1cc2nc(-c3cccnc3NCCc3ccc(-c4ccccc4)cc3)[nH]c2cc1Cl` the IC50 [2] was > 10000 nM.
An IC50 [1] of 45 nM was found for `C[C@H](NC(=O)[C@@H](NC(=O)C(C)(C)O)[C@@H](C)c1ccc(OCC(F)(F)F)cc1)c1nc2cc(Cl)c(Cl)cc2[nH]1` in this work.
An IC50 [1] of 5000 nM was found for `C[C@H](NC(=O)[C@@H](N)Cc1cccc(C#N)c1)c1nc2cc(Cl)c(Cl)cc2[nH]1` in this work.
